Patent US6013628A, “Method for treating conditions of the eye using polypeptides” (Regents of the University of Minnesota, priority 1995, dated 2000)
No end group written: not given here.

What was measured:
dermal fibroblasts [1] = settings: Verdoorn et al. 1986; cited from earlier work
dermal fibroblasts [2] = settings: Verdoorn et al. 1986; cited from earlier work; remark: listed apart in the source
dermal fibroblasts [3] = settings: Verdoorn et al. 1986; cited from earlier work; remark: listed apart in the source
[4] = test system: rabbit dermal fibroblasts; experiment: Fibroblast-mediated collagen gel contraction (shrinkage) assay; type: cell-based
Source text: As indicated above, proliferative vitreoretinopathy is the result of the proliferation and migration of fibroblasts, retinal pigment epithelial cells, and glial cells, and their organization into vitreous strands and epiretinal membranes. The vitreous strands and epiretinal membranes can contract, resulting in traction retinal detachment. The ability of rabbit dermal fibroblasts to cause contraction was examined in the collagen gel shrinkage model, which serves as an in vitro model of proliferative vitreoretinopathy (see Verdoon et al., Arch. Ophthalmol., 104, 1216-1219 (1986)). The ability of synthetic polypeptides derived from ECM molecules to inhibit contraction in the collagen gel shrinkage model using rabbit fibroblasts was also examined.
Fifty thousand rabbit dermal fibroblasts were suspended in 250 μl of fibroblast assay medium and mixed with 250 μl of Vitrogen and dispensed into the wells of a 48-well plate. The cells were preincubated with the desired polypeptide concentration (25, 50, 100, or 200 ug/ml) for one hour at 37° C. before mixing with the Vitrogen. Gelling occurred within 20 minutes after transfer of the mix of cell suspension and Vitrogen into an incubator at 37° C. with 5% CO2. The gels were overlaid with 250 μl of growth medium. All conditions were tested in duplicate wells. After 24 hours, the gels were detached from the sides of the wells by sweeping with a 27-gauge needle inserted at the interface between the plastic well and the gel (FIGS. 6-8).
Contraction of collagen gels was quantitated by use of planimetry. The gels were observed daily over the seven day period following detachment for evidence of contraction. The plates were photographed at the end of the seven days to record the amount of contraction. The contraction was measured by recording the area of each gel in each well off the photograph using a computer scanner. The area of the gels with polypeptide was compared to the area of the gels without the polypeptide. Planimetry is a two-dimensional measurement. […] The planimetry measurements accordingly underestimate the degree of contraction that actually occurred.
The collagen gels were cast with or without the incorporation of 25 ug/ml of fibronectin. […] These controls using deactivated cells indicate that cell growth and proliferation are required to effect gel shrinkage.

[5] = test system: rabbit conjunctival fibroblasts; experiment: Conjunctival fibroblast proliferation, tritiated thymidine assay; type: cell-based; settings: day 4; mitomycin-C at 100 μg/ml (positive control); no drug control 8537 cpm
Source text: The failure of gluacoma treatment by filtration surgery is most often caused by scarring. Scarring requires fibroblast proliferation and fibrosis of the subconjunctive space. Proliferation of rabbit conjunctival fibroblasts was studied using the tritiated thymidine assay, which serves as an in vitro model of fibroblast proliferation in the rabbit eye (see Invest. Ophthalmol. Vis. Sci., 31, 1848-1855 (1990)). The ability of synthetic polypeptides derived from ECM molecules to inhibit conjuntival fibroblast proliferation was examined in this model.
Rabbit conjunctival fibroblasts were plated into 96-well microtiter plates at 1000 cells/well in 200 microliters of standard fibroblast culture media. Standard fibroblast culture media include Eagle's minimal essential medium containing 15% fetal bovine serum, penicillin G 100 IU/ml, streptomycin 100 μg/ml, and amphotericin B 0.25 μg/ml. Hep-II was added to the wells in concentrations ranging from 1 μg/ml to 1000 μg/ml after removing an equal volume of media to maintain 200 microliters/well. The peptide was used in concentrations of 1, 3, 7, 10, 25, 50, 100, 200, 300, 400, 500, 600, 800 and 1000 microgram/ml (experiments 1-14, respectively in FIG. 26). The tissue culture plates were incubated at 37° C. in a humidified atmosphere of 5% carbon dioxide. Two separate sets experiments were conducted. Each set of experiments was done in replicates of four. In the first set of experiments, tritiated thymidine was added 22 hours prior to each harvesting on days 4, 5, and 8. In the second set of experiments, tritiated thymidine was added 22 hours prior to each harvesting on days 4, 5, and 6. Wells with vehicle but no test compound served as negative controls (experiment #15) and cells with mitomycin-C at 100 μg/ml served as positive controls (experiment #16).

[6] = test system: retinal pigmented epithelial cells; settings: Avery et al. 1986; cited from earlier work
[7] = 3H-heparin; cited from earlier work
rabbit eye = experiment: Intravitreal polypeptide toxicity in rabbit eye (ERG, clinical observations, histology); type: in vivo
Experimental: The toxicity of the polypeptides was determined by three techniques:
ERG. Electroretinograms (ERG) were carried out as a functional indicator of toxicity of a polypeptide treatment. Polypeptides were injected at 200 ug and 400 ug (twice the dose that inhibited proliferative vitreoretinopathy), and ERG measurements were performed three times in each eye at various times post-injection (1 hr to 6 weeks).
Clinical observations. Observation by indirect ophthalmoscopy and slit lamp examination were performed to probe for evidence of toxicity.
Histology. Following ERG and clinical observations, the eyes were immediately enucleated, fixed in 10% formalin, paraffin embedded, sectioned at 7 microns, and stained with hematoxylin and eosin.

[8] = test system: proliferative vitreoretinopathy in rabbits; experiment: Rabbit model of experimental proliferative vitreoretinopathy (intravitreal fibroblast injection); type: in vivo
Experimental: The rabbit model for proliferative vitreoretinopathy is described in Thresher et al., Graefe's Arch. Clin. Exp. Ophthalmol., 221, 192-198 (1984). Adult Dutch Belted rabbits of both sexes were used in the study. All animals were treated according to ARVO Animal Use Guidelines. All eyes were examined prior to initiation of a study and only clinically normal animals were used.
The rabbits were anesthetized using an intramuscular injection of a mix of ketamine (30 mg/kg) and xylazine (5 mg/kg). Pupils were dilated with Mydriacyl (Tropicamide) 1% and Neosynephrine 2.5% topical drops. Topical conjunctival anesthesia was provided with Proparacaine […] drops. All procedures were performed in an approved animal surgical facility. […] This site was used for subsequent intraocular injections, preventing iatrogenic retinal tears at the injection site. An intravitreal injection of 0.4 cc millipore-filtered 100% perfluoropropane gas was administered to produce a gas compression vitrectomy. Once the expansile gas bubble had absorbed, 5-10×10^4 dermal rabbit fibroblasts with or without 200 μg of polypeptide (injection volume-0.1 cc) were injected through a 27 gauge needle into the vitreous cavity. Under indirect ophthalmoscopic visualization, the tip of the needle was placed over the optic nerve head and the cells were injected in this location.
The animals were then observed for the development of proliferative vitreoretinopathy. The final stage of retinal detachment was scored from 0 to 7 using the standard grading scale shown below (see Hida et al., Graefe's Arch. Clin. Exp. Ophthalmol., 225, 1763-1769 (1991)).
Retinal photographs were taken with a wide field fundus camera (Canon) to document the final stage of retinal detachment. Animals were sacrificed while under deep anesthesia with an intravenous injection of 1 cc of euthanasia solution. The eyes were then immediately enucleated, fixed in 10% formalin, paraffin embedded, sectioned at 7 microns, and stained with hematoxylin and eosin for histology.
Three weeks following peripheral retinal cryopexy and gas compression vitrectomy, rabbit fibroblasts incubated for 1 hr with 200 ug of laminin polypeptide R37, type IV collagen polypeptide Hep-II, or BSS (balanced saline solution; control) were injected intravitreally. One eye of each rabbit received polypeptide incubated fibroblasts and the other eye received the control cells. Eyes were examined every three days, and the degree of retinal detachment was graded on the standard scale described above.

fibroblasts = settings: cited from earlier work
[9] = test system: human scleral fibroblasts; settings: cited from earlier work
[10] = test system: retinal pigmented epithelial cells; settings: cited from earlier work
[11] = test system: proliferative vitreoretinopathy rabbit model; settings: cited from earlier work

COc1cc2c(c(OC)c1OC)-c1ccc(OC)c(=O)cc1[C@@H](NC(C)=O)CC2 [colchicine]
Inhibition of gel contraction (dermal fibroblasts [1]): most effective at inhibiting gel contraction
Inhibition of cell proliferation (dermal fibroblasts [2]): inhibited cell proliferation

C=C1[C@@H](C)[C@H]2[C@H](Cc3ccccc3)NC(=O)[C@]23OC(=O)/C=C/[C@H](O)CCC[C@@H](C)C/C=C/[C@H]3[C@@H]1O [cytochalasin B]
Inhibition of cell migration (dermal fibroblasts [3]): minimal effect on cell migration
Inhibition of cell proliferation (dermal fibroblasts [2]): inhibited cell proliferation

COc1cccc2c1C(=O)c1c(O)c3c(c(O)c1C2=O)C[C@@](O)(C(C)=O)C[C@@H]3O[C@H]1C[C@H](N)[C@H](O)[C@H](C)O1 [daunomycin]
Inhibition of gel contraction (dermal fibroblasts [1]): not found to inhibit contraction
Inhibition of cell migration (dermal fibroblasts [3]): most inhibited
Inhibition of cell proliferation (dermal fibroblasts [2]): most effective

CO[C@@]12[C@H](COC(N)=O)C3=C(C(=O)C(C)=C(N)C3=O)N1C[C@@H]1N[C@@H]12 [mitomycin-C, reference compound]
Gel contraction by pretreated fibroblasts ([4]; fibroblasts pretreated with mitomycin C, data not shown): did not cause gel contraction
Thymidine uptake [5]: 375 cpm

Arg-Gly-Asp-Ser (RGDS)
Adhesion of retinal pigmented epithelial cells to fibronectin, type I collagen, type II collagen and lens capsule basement membrane [6]: inhibit the adhesion

KATPMLKMRTSFHGCIK [R37, Lys-Ala-Thr-Pro-Met-Leu-Lys-Met-Arg-Thr-Ser-Phe-His-Gly-Cys-Ile-Lys]
Heparin binding [7]: bind
Contraction ([4]; 200 ug laminin peptide, cells preincubated 1 hr, gel surface area by planimetry at day 7, no peptide 67%): 12%
Effect on fibroblast-mediated collagen gel contraction ([4]; gels cast with and without fibronectin): most potent inhibitory effects on contraction
Retinal histopathology (rabbit eye; following injection of 400 ug): normal rabbit retinal histopathology
Toxic effects by clinical observations, histopathology or ERG (rabbit eye; intravitreal injection of 200 ug or 400 ug): No toxic effects
Retina appearance (stage 0-7 scale), fundus photograph ([8]; 200 ug with 100,000 fibroblasts, three weeks after fibroblast injection): normal (Stage 0)
# Detached Retinas (%) ([8]; Expt II: 200 ug, 50,000 cells, RD staged at day 21, control 40%): 0%
# Detached Retinas ([8]; Expt II: 200 ug, 50,000 cells, RD staged at day 21, total 5 eyes, control 2 of 5): 0
# Detached Retinas (%) ([8]; Expt III: 200 ug, 100,000 cells, RD staged at day 7, control 100%): 14%
# Detached Retinas ([8]; Expt III: 200 ug, 100,000 cells, RD staged at day 7, total 7 eyes, control 7 of 7): 1
# Detached Retinas (%) ([8]; Expt IV: 200 ug, 80,000 cells, RD staged at day 21, control 100%): 25%
# Detached Retinas ([8]; Expt IV: 200 ug, 80,000 cells, RD staged at day 21, total 4 eyes, control 3 of 3): 1
Degree of retinal detachment ([8]; fibroblasts incubated 1 hr with 200 ug polypeptide, intravitreal): inhibited the degree of retinal detachment

heparin
Fibroblast-mediated contraction of type I collagen gels (fibroblasts): inhibit
Proliferation of human scleral fibroblasts [9]: inhibits the proliferation
Proliferation of retinal pigmented epithelial cells [10]: inhibits the proliferation
Postoperative bleeding ([11]; rabbit, in vivo): increased postoperative bleeding was observed
Development of intraocular fibrin membranes ([11]; standardized PVR rabbit model): prevent the development of intraocular fibrin membranes
